According to patent US20060148885A1, “Medicinal composition” (Kyowa Hakko Kogyo Co., Ltd., priority 2003, published 2006):
Structures can show the parent of a compound that is named as a salt.

System: rats with bladder hypertrophy
Assay: Inhibitory activity on detrusor overactivity: cystometry in rats with partial urethral obstruction
Format: in vivo, SD rats
Conditions: p.o., Compound (Ia) 0.01 mg/kg, tamsulosin 0.03 mg/kg; for amplitude of premicturition contractions (relative value, before administration = 100) / frequency of premicturition contractions (relative value, before administration = 100) / amplitude of micturition contractions (relative value, before administration = 100): average ± standard error; for amplitude of premicturition contractions (relative value, before administration = 100) / frequency of premicturition contractions (relative value, before administration = 100): n = 9-10; for amplitude of micturition contractions (relative value, before administration = 100): index of voiding function; for effect on micturition contractions (voiding function), in words / effect on premicturition contractions (amplitude and frequency), in words: summary of Test Example
Protocol: The experiment was carried out according to the method by Malmgren, et al. [J. Urol., Vol. 142, pp. 1134-1138 (1989)]. Female SD rats of 8 to 9 weeks of age (supplied by Charles River Japan) were used in the test. Five to seven animals of these rats were housed in metal cages and given commercially available chow and water ad libtum, in an animal room maintained at room temperature from 19° C. to 25° C. and humidity from 30% to 70% under illumination for 12 hours (7:00 a.m.-7:00 p.m.) per day. The rats were subjected to operation of partial urethral obstruction. Each animal was anesthetized by intraperitoneal administration of 50 mg/kg pentobarbital sodium (Tokyo Kasei), and the midline incision of the skin and muscle was made in the lower abdomen. A polyethylene tube (PE-20, Becton Dickinson) was inserted into urethra from the urethral orifice to the bladder neck. After the proximal urethra was separated from connective tissues and ligated using double suture, the polyethylene tube was removed to induce partial urethral obstruction. The incised part was sutured with a surgical silk thread. An antibiotic ampicillin (Sigma) was intramusclarly injected (150 mg/kg, once a day, for 3 days). Six weeks after the operation of the partial urethral obstruction, the rats with bladder hypertrophy were subjected to intravesical implantation of catheter. Under anesthesia with pentobarbital sodium, the bladder was exposed by an abdominal midline incision. A polyethylene tube (PE-50, Becton Dickinson), one end of which was blunted not to damage the bladder tissue, was filled with a physiological saline (Otsuka Pharmaceutical Factory) and inserted into the bladder via the bladder apex. The intravesical catheter was fixed with a surgical silk suture. The other end of the catheter was tunneled subcutaneously, drawn out from the dorsal neck, plugged and then fixed to the skin with a suture. Four to seven days after the surgery for implantation of intravesical catheter, a cystometry test was performed. The rats were housed in a Bollman cage (Natsume Seisakusho) and a three-way stopcock was connected to the intravesical catheter, one end of the stopcock was connected to a pressure transducer (Nihon Kohden) and the other end was connected to a 50-mL syringe (Terumo) set in an infusion pump (KD Scientific) for physiological saline infusion. The intravesical pressure was measured with a polygraph system (RMP-6008, Nihon Kohden) via a pressure transducer and a strain pressure amplifier (AP-621G, Nihon Kohden), and recorded on a thermal array recorder (RTA-1200, Nihon Kohden). Sixty to 90 minutes after the completion of the preparation for the measurement, a room temperature physiological saline was continuously infused into the urinary bladder for 30 minutes at a flow rate of 10 mL/h to confirm the occurrence of micturition contractions and premicturition contractions (detrusor overactivity). Thirty minutes after the cessation of the first saline infusion, the saline was again infused intravesically for 30 minutes, and this period is for determination of the data before drug administration. Compound (Ia) was suspended in a 0.5 w/v (weight/volume) % methyl cellulose solution at a concentration of 1 mg/ml. The suspension was further diluted with a 0.5 w/v % methyl cellulose solution to prepare solution for administration [solution for Compound (Ia) administration] at a concentration of 0.01 mg/ml. The solution was orally administered to the rats at a volume of 1 ml/kg. Tamsulosin hydrochloride was dissolved in a 0.5 w/v % methyl cellulose solution at a concentration of 0.03 mg/ml (solution for tamsulosin administration), and the solution was orally administered to the rats at a volume of 1 ml/kg. For investigating the effect of the combined administration, Compound (Ia) solution and the tamsulosin solution were simultaneously and orally administered to the rats, both at a volume of 1 ml/kg each. […]

Row | Compound | amplitude of premicturition contractions (relative value, before administration = 100) (After 1 hour) | frequency of premicturition contractions (relative value, before administration = 100) (After 1 hour) | amplitude of micturition contractions (relative value, before administration = 100) (After 1 hour) | amplitude of premicturition contractions (relative value, before administration = 100) (After 3 hours) | frequency of premicturition contractions (relative value, before administration = 100) (After 3 hours) | amplitude of micturition contractions (relative value, before administration = 100) (After 3 hours) | amplitude of premicturition contractions (relative value, before administration = 100) (After 5 hours) | frequency of premicturition contractions (relative value, before administration = 100) (After 5 hours) | amplitude of micturition contractions (relative value, before administration = 100) (After 5 hours) | effect on micturition contractions (voiding function), in words | effect on premicturition contractions (amplitude and frequency), in words
1 | C[C@](O)(C(=O)Nc1cccc2c1C(=O)c1sccc1CS2(=O)=O)C(F)(F)F [Compound (Ia), (S)-(+)-3,3,3-trifluoro-2-hydroxy-2-methyl-N-(5,5,10-trioxo-4,10-dihydrothieno[3,2-c][1]benzothiepin-9-yl)propanamide] | 62.3 ± 7.7 % | 52.3 ± 7.3 % | 109.5 ± 2.2% | 62.8 ± 7.6 % | 46.2 ± 8.1 % | 105.5 ± 3.8% | 65.6 ± 7.5 % | 42.4 ± 6.0 % | 96.7 ± 2.4% | did not affect micturition contractions | inhibited premicturition contractions
2 | CCOc1ccccc1OCCN[C@H](C)Cc1ccc(OC)c(S(N)(=O)=O)c1 [Tamsulosin, Tamsulosin hydrochloride] | 62.0 ± 5.2 % | 57.8 ± 7.5 % | 108.5 ± 6.4% | 75.2 ± 5.5 % | 73.2 ± 5.3 % | 108.1 ± 6.0% | 88.3 ± 7.2 % | 78.4 ± 7.0% | 104.7 ± 6.4% | did not affect micturition contractions | inhibited premicturition contractions
